Data reported in patent publication US9485983B2, “Use of connexin channel inhibitors to protect grafts” (Universiteit Gent, priority 2012, dated 2016).
“Also recorded” adds a separate entry of the source.

Key:
Type in all cases: cell-based
[1] = system: ECs and SMCs of saphenous veins; assay: TUNEL apoptosis assay on cryopreserved/thawed human saphenous veins; conditions: saphenous vein; Gap27 during cryopreservation/thawing only
[2] = system: ECs and SMCs of femoral arteries; assay: TUNEL apoptosis assay on cryopreserved/thawed human femoral arteries; conditions: for Protection relative to total number of cells (%) / Protection relative to total number of dead cells (%): Arteries, Gap27 200 μM; for effect on number of TUNEL-positive cells (in words) / reduction of TUNEL-positive cell death counts (fraction): femoral arteries; for reduction of TUNEL-positive cell death counts (fraction): 200 μM during cryopreservation, thawing and DMSO washout
From the text: (§1) Tissue samples of human femoral artery and saphenous vein were obtained from deceased donors (age: 45±1.7 years) according to a protocol that was approved by the ethical committee of the University Hospital Ghent, Belgium. […] Exclusion criteria were: presence of ulcers, calcific atheromas, rupture of intima or media, traction lesions due to prelevation in arteries; signs of phlebitis, atheromatosis, parietal abnormalities, or lesions of intima in veins. The vessels were placed in HBSS-HEPES and prior to cryopreservation, DMSO (15%) was added. […] Grafts were cryopreserved at 1° C./minute in a −80° C. freezer and, after two weeks, stored for at least another two weeks in a liquid nitrogen container (−196° C.).
(§2) For vessel analysis and cell death studies, tissues were thawed in a 37° C. water bath and kept on ice before the next steps. DMSO was then progressively washed out by a stepwise reduction of the DMSO concentration in the HBSS-HEPES solution. To that purpose, the blood vessels remained for 4 minutes in HBSS-HEPES solution with, respectively, 10%, 5%, 2.5% and 0% DMSO. In Gap27-treated vessels, the peptide (200 μM) was present during DMSO washout.
(§3) After DMSO washout, vessels were embedded in paraffin. To this purpose, blood vessels were transferred to a neutral buffered 4% formalin solution for fixation during 24 hours and were then embedded in paraffin. Paraffin-embedded vessel specimens were cut into […] serial sections along a transverse plane and were then stained with hematoxylin and eosin for general inspection, immunostained for connexins to establish the expression of various connexin types in the blood vessels or stained for cell death (apoptosis) making use of in situ terminal TdT-mediated dUTP nick end-labeling (TUNEL) with the In Situ Cell Death Detection Kit (Roche, Vilvoorde, Belgium). After any of these staining procedures, images were taken on a Nikon TE300 inverted microscope using a ×10 or ×20 objective and equipped with a Nikon DS-Ri1 cooled color CCD camera (Nikon Belux, Brussels, Belgium).
(§4) Embedded artery or vein sections were deparaffinized, rehydrated through graded alcohol, and permeabilized with 0.1% TRITON® X-100 at room temperature (8 minutes incubation). Slides were rinsed twice in a phosphate-buffered saline (PBS). Apoptosis was detected through in situ terminal deoxynucleotidyl transferase (TdT)-mediated deoxyuridine triphosphate (dUTP) nick end-labeling (TUNEL), using the In Situ Cell Death Detection Kit (Roche, Vilvoorde, Belgium). Slides were incubated with the TUNEL reaction mixture containing TdT and fluorescein-dUTP for 1 hour at 37° C.; thereafter, they were rinsed three times in PBS and mounted as described for immunostaining. […] TUNEL-stained blood vessel tissue sections were examined by epifluorescence microscopy as described for immunostaining. Four areas from each slide were examined and five slides per blood vessel were analyzed. The number of TUNEL-positive cells is given as a percentage of the total number of cells quantified from DAPI-positive counts.

[3] = system: bovine oocytes; assay: Fertilization rate of vitrified/thawed COCs; conditions: COCs vitrified/thawed in the presence of Gap27
Method: All procedures used were in accordance with the guidance principals for care and use of laboratory animals of the Laboratory Animal Ethical Commission of Ghent University. Bovine cumulus-oocyte complexes (COCs) were aspirated from ovaries collected at a local slaughterhouse. Immature COCs were recovered from the follicular fluid, washed two times in HEPES-TALP (see below under the heading “Pharmacological agents and solutions” of Materials and Methods), and matured for 22 hours in groups of 60 in […] of modified bicarbonate-buffered TCM199 (Gibco BRL, Life Technologies) supplemented with 20% heat-inactivated fetal calf serum (FCS; Sigma-Aldrich) at 38.5° C. in a humidified 5% CO2 incubator. Vitrification was performed in two steps: an equilibration (EQ) and a vitrification step (VS). Equilibration solution was composed of M199/Hanks/HEPES supplemented with 20% fetal calf serum (FCS)+7.5% ethylene glycol+7.5% DMSO. The vitrification solution contained: M199/Hanks/HEPES supplemented with 20% FCS+15% ethylene glycol, 15% DMSO and 0.5 M sucrose. The COCs were washed by transferring them sequentially in three drops of 100 μl EQ solution (3 minutes residence in the first two drops and 6 minutes in the last drop) and then placed stepwise in five 100 μl drops VS solution (5 seconds in each drop except for the fifth that lasted 10 seconds). […]

[4] = system: ECs and SMCs of femoral arteries; assay: TUNEL apoptosis assay on cryopreserved/thawed human femoral arteries; conditions: femoral artery; Gap27 during cryopreservation/thawing only
[5] = system: bovine cumulus-oocyte complexes (COCs); assay: TUNEL cell death assay on COCs after vitrification/thawing
Method: Bovine cumulus-oocyte complexes (COCs) were aspirated from ovaries collected at a local slaughterhouse. Immature COCs were recovered from the follicular fluid, washed two times in HEPES-TALP (see below under the heading “Pharmacological agents and solutions” of Materials and Methods), and matured for 22 hours in groups of 60 in 500 mL of modified bicarbonate-buffered TCM199 (Gibco BRL, Life Technologies) supplemented with 20% heat-inactivated fetal calf serum (FCS; Sigma-Aldrich) at 38.5° C. in a humidified 5% CO2 incubator. Vitrification was performed in two steps: an equilibration (EQ) and a vitrification step (VS). Equilibration solution was composed of M199/Hanks/HEPES supplemented with 20% fetal calf serum (FCS)+7.5% ethylene glycol+7.5% DMSO. The vitrification solution contained: M199/Hanks/HEPES supplemented with 20% FCS+15% ethylene glycol, 15% DMSO and 0.5 M sucrose. The COCs were washed by transferring them sequentially in three drops of 100 μl EQ solution (3 minutes residence in the first two drops and 6 minutes in the last drop) and then placed stepwise in five 100 μl drops VS solution (5 seconds in each drop except for the fifth that lasted 10 seconds). The connexin channel inhibitor Gap27 was added to the fifth drop of VS solution at a final concentration of 200 μM (the Gap27 sequence is given below under the heading “Pharmacological agents and solutions” of Materials and Methods). The control condition consisted of a drop solution without any added Gap27. COCs were placed in a manufactured cryotop and transferred immediately to liquid nitrogen (−196° C.).
After 24 hours' storage in liquid nitrogen, the COCs were thawed by transferring them to a warming solution at 37° C. composed of M199/Hanks/HEPES+20% FCS+1.25 M sucrose for 1 minute. This was followed by a three-step wash-out of the hyperosmolar sucrose (reduced from 1.25 M to 0.62, 0.31 and 0 M, respectively; duration of each wash was 3 minutes, 5 minutes and 5 minutes, respectively). In the Gap27 treatment condition, the peptide concentration was gradually diluted over these three washing steps, halving its concentration with each transfer step (reduced from 200 μM in cryopreservation solution to 100, 50 and 0 μM, respectively). In the text that follows, “thawing” denotes the combination of warming and wash out of the hyperosmolarity.
COCs were fixed in neutral buffered 4% formalin solution after thawing. Fixed COCs were permeabilized with 0.1% TRITON® X-100 at room temperature (8-minute incubation). […] Cell death was detected by in situ terminal deoxynucleotidyl transferase (TdT)-mediated deoxyuridine triphosphate (dUTP) nick end-labeling (TUNEL), using a commercial In Situ Cell Death Detection Kit (Roche, Vilvoorde, Belgium). […]

[6] = system: cumulus cells of bovine COCs; assay: TUNEL cell death of COCs after simulated transportation
Method: COCs were fixed in neutral buffered 4% formalin solution after thawing. Fixed COCs were permeabilized with 0.1% TRITON® X-100 at room temperature (8-minute incubation). COCs were rinsed twice in a phosphate-buffered saline (PBS, see Pharmacological agents and solutions). Cell death was detected by in situ terminal deoxynucleotidyl transferase (TdT)-mediated deoxyuridine triphosphate (dUTP) nick end-labeling (TUNEL), using a commercial In Situ Cell Death Detection Kit (Roche, Vilvoorde, Belgium). COCs were incubated with the TUNEL reaction mixture containing TdT and fluorescein-dUTP for 1 hour at 37° C.; thereafter, they were rinsed three times in PBS and mounted with an antifade solution containing 4′,6-diamidino-2-phenylindole (DAPI) (Vectashield, Lab Consult) for nuclear staining. Slides were examined by epifluorescence microscopy using a Nikon TE300 inverted microscope with a ×10 objective and equipped with a Nikon DS-Ri1 cooled color CCD camera (Nikon Belux, Brussels, Belgium).
[…] This was performed with or without Gap27 peptide (200 μM) present in the transportation phase medium. Afterward, cell death was evaluated via TUNEL assays as described before.
Testing was performed as to whether Gap27 could improve COC viability upon inclusion in the media during a simulated transportation phase (5 hours total duration, see Materials and Methods) applied after the vitrification/thawing procedure. In these experiments, vitrification/thawing were done under control conditions and Gap27 was only present in the transportation medium.

[7] = system: ECs and SMCs of saphenous veins; assay: TUNEL apoptosis assay on cryopreserved/thawed human saphenous veins; conditions: for Protection relative to total number of cells (%) / Protection relative to total number of dead cells (%): Veins, Gap27 200 μM; for effect on number of TUNEL-positive cells (in words) / reduction of TUNEL-positive cell death counts (fraction): saphenous veins; for reduction of TUNEL-positive cell death counts (fraction): 200 μM during cryopreservation, thawing and DMSO washout
From the text: as §1, §2, §3, §4

[8] = system: bovine oocytes; assay: Cleavage rate of vitrified/thawed COCs; conditions: Gap27-treated vitrified/thawed COCs; after 48 hours in culture
Method: All procedures used were in accordance with the guidance principals for care and use of laboratory animals of the Laboratory Animal Ethical Commission of Ghent University. Bovine cumulus-oocyte complexes (COCs) were aspirated from ovaries collected at a local slaughterhouse. Immature COCs were recovered from the follicular fluid, washed two times in HEPES-TALP (see below under the heading “Pharmacological agents and solutions” of Materials and Methods), and matured for 22 hours in groups of 60 in […] of modified bicarbonate-buffered TCM199 (Gibco BRL, Life Technologies) supplemented with 20% heat-inactivated fetal calf serum (FCS; Sigma-Aldrich) at 38.5° C. in a humidified 5% CO2 incubator. Vitrification was performed in two steps: an equilibration (EQ) and a vitrification step (VS). Equilibration solution was composed of M199/Hanks/HEPES supplemented with 20% fetal calf serum (FCS)+7.5% ethylene glycol+7.5% DMSO. The vitrification solution contained: M199/Hanks/HEPES supplemented with 20% FCS+15% ethylene glycol, 15% DMSO and 0.5 M sucrose. […]
To determine the cleavage rate, zygotes were washed and placed in groups of 30 in […] droplets of synthetic oviduct fluid (composition see below under “Pharmacological agents and solutions”) supplemented with 5% FCS and cultured at 38.5° C. in 5% CO2, 5% O2, and 90% N2; cleavage rate was determined after 48 hours in culture.

[9] = system: C6 glioma cells stably transfected with Cx43; assay: TUNEL control experiment with staurosporine; conditions: 2 μM, 6 hours
[10] = cumulus cells, Gap27 during vitrification/thawing
[11] = simulated transportation at 0° C., intact COCs
[12] = simulated transportation at 37° C., cumulus reduced to 1-5 cell layers
[13] = simulated transportation at 37° C., intact cumulus cloud

Gap27: connexin mimetic peptide, connexin channel inhibitor, SRPTEKTIFII (SEQ ID NO:2) (listed as Homo sapiens)
effect on cell death (in words) [1]: larger and statistically significant protective effects | Protection relative to total number of cells (%) ([2]; EC): 11 ± 4 (n = 11) % | Protection relative to total number of dead cells (%) ([2]; EC): 32 ± 8 (n = 11) % | Protection relative to total number of cells (%) ([2]; SMC): 6 ± 3 (n = 11) % | Protection relative to total number of dead cells (%) ([2]; SMC): 73 ± 7 (n = 11) % | effect on number of TUNEL-positive cells (in words) ([2]; ECs and SMCs): visibly reduced; also recorded: significantly reduced | reduction of TUNEL-positive cell death counts (fraction) ([2]; intimal layer (ECs)): more than ⅓ | reduction of TUNEL-positive cell death counts (fraction) ([2]; medial layer (SMCs)): more than ⅔ | effect on cell death (in words) ([2]; femoral artery, ECs and SMCs, Gap27 during DMSO washout only): slightly (but non-significantly) reduced | fertilization rate [3]: 41.2% | effect on cell death (in words) [4]: larger and statistically significant protective effects | cell death (TUNEL assay) of cumulus cells ([5]; Gap27 200 μM during vitrification/thawing): 1.68% | cell death of the oocytes (in words) ([5]; after vitrification/thawing, whatever the treatment): No cell death of the oocytes | cell mass rescued (effect size relative to the total number of cells) [5, 10]: ~2.4% | reduction relative to the total number of dead cells in control [5, 10]: ~59% | cell death of cumulus cells ([6]; simulated transportation 5 hours at 37° C., intact cumulus cloud, Gap27 200 μM in transportation medium): 13.8% | cell death of cumulus cells [6, 11]: 2.82% | reduction of the dead cell mass [6, 11]: ~53% | rescue effect of the total cell mass [6, 11]: ~3.1% | cell death of cumulus cells ([6]; simulated transportation at 37° C., cumulus cell layer reduced to 1-5 cell layers): 7.54% | reduction of the dead cell mass [6, 12]: ~54% | rescue effect of the total cell mass [6, 12]: ~8.7% | reduction of the mass of dead cells [6, 13]: ~32% | rescue effect relative to the total mass of cells [6, 13]: ~6.5% | Protection relative to total number of cells (%) ([7]; EC): 12 ± 4 (n = 13) % | Protection relative to total number of dead cells (%) ([7]; EC): 51 ± 8 (n = 13) % | Protection relative to total number of cells (%) ([7]; SMC): 6 ± 2 (n = 13) % | Protection relative to total number of dead cells (%) ([7]; SMC): 71 ± 6 (n = 13) % | effect on cell death (in words) ([7]; saphenous vein, ECs and SMCs, Gap27 during DMSO washout only): slightly (but non-significantly) reduced | effect on number of TUNEL-positive cells (in words) ([7]; ECs and SMCs): significantly reduced | reduction of TUNEL-positive cell death counts (fraction) ([7]; ECs): ½ | reduction of TUNEL-positive cell death counts (fraction) ([7]; SMCs): more than ½ | cleavage rate [8]: 28%

CN[C@@H]1C[C@H]2O[C@@](C)([C@@H]1OC)n1c3ccccc3c3c4c(c5c6ccccc6n2c5c31)C(=O)NC4 [staurosporine, Staurosporine]
TUNEL positivity (in words) [9]: massive TUNEL positivity

Gap27 with a scrambled peptide sequence: scrambled Gap27 control peptide TFEPIRISITK [reference compound]
effect on number of TUNEL-positive cells (in words) ([2]; ECs and SMCs): no significant effects | effect on number of TUNEL-positive cells (in words) ([7]; ECs and SMCs): no significant effects
